Consider four compounds from patent publication US8431703B2, “Pyrrolopyridine compounds and their use in treating disease” (Novartis AG, priority 2005, dated 2013).

In experiment [1] the target is T1, human CRTh2 (Homo sapiens, UniProt Q9Y5Y4).
T1 sequence (Q9Y5Y4 1-395): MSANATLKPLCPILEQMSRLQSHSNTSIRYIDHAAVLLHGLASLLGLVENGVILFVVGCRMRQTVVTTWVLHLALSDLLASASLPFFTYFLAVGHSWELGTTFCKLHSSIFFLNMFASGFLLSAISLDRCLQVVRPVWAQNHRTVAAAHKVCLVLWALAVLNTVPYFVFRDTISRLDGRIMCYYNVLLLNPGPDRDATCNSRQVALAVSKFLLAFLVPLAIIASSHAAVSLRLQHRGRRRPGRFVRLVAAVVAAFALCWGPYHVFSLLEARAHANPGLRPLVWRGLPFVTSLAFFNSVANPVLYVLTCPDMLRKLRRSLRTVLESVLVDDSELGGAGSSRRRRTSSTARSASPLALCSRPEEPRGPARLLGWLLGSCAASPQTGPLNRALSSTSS
As to the kind of experiment: CRTH2 cAMP functional assay in CHO.K1-CRTh2 cells. It is filed as cell-based. Also on record: expressed in transfected cells; host or cells: CHO.K1-CRTh2 cells. The settings on record: inhibition of PGD2-mediated attenuation of forskolin-induced cAMP accumulation. As to the method:
This assay is conducted in CHO.K1-CRTh2 cells. cAMP is generated in the cell by stimulating cells with 5 μM forskolin, an adenylate cyclase activator. PGD2 is added to activate the CRTh2 receptor which results in the attenuation of the forskolin-induced cAMP accumulation. Potential CRTh2 antagonists are tested for their ability to inhibit the PGD2-mediated attenuation of the forskolin-induced cAMP accumulation in CHO.K1-CRTh2 cells.
For each concentration value on the dose-response curve, test compounds are prepared in assay stimulation buffer (HBSS, 5 mM HEPES, 10 μM IBMX±0.1% human serum albumin) containing DMSO (3% vol/vol) and 5 μL/well is added to an assay plate (384 well white optiplate).
CHO.K1-CRTh2 cultured in tissue culture flasks are washed with PBS and harvested with dissociation buffer. Cells are washed with PBS and resuspended in stimulation buffer to a concentration of 0.4×10^6/mL and added to the assay plate (10 μL/well).
The assay plate is incubated at room temperature on a shaker for 15 minutes.
A mix of agonist (10 nM Prostaglandin D2) and 5 μM forskolin is prepared in assay stimulation buffer and added to the assay plate (5 μL/well).
In addition, a cAMP standard is serially diluted in assay stimulation buffer and added to separate empty wells on the assay plate (20 μL/well). The cAMP standard allows for the quantification of cAMP generated in CHO.K1-CRTH2 cells.
The assay plate is incubated at room temperature on a shaker for 60 minutes.
Cell lysis buffer (Lysis buffer: Milli-Q H20, 5 mM HEPES, 0.3% Tween-20, 0.1% human serum albumin) is added to a bead mix (containing Alphascreen™ anti-cAMP acceptor beads 0.06 units/IL, Alphascreen™ streptavidin-coated donor beads 0.06 units/μL, biotinylated cAMP 0.06 units/μL, 10 μM IBMX) is prepared under darkened conditions 60 minutes prior to addition to the assay plate. The resulting lysis mix is added to all wells of the assay plate (40 μL/well).
The assay plate is sealed with Topseal-S™ and incubated in the dark at room temperature on a shaker for 45 minutes. The plate is then counted using a Packard Fusion™ instrument.
The resulting counts per minute are converted to nM cAMP by using the prepared cAMP standard curve. IC50 values (concentration of CRTh2 antagonist required to inhibit 50% of the PGD2-mediated attenuation of forskolin-induced cAMP accumulation in CHO.K1-CRTh2 cells) are then determined using Prism™ software.

Experiment [2] concerns the target T1, human CRTh2. As to the kind of experiment: CRTh2 [3H]-PGD2 binding assay (filtration binding protocol; called SPA binding assay). Also on record: expressed in transfected cells; host or cells: CHO.K1 (Chinese Hamster Ovary) cells, membrane preparation. The settings on record: competition with [3H]-PGD2 2.5 nM, CHO.K1-CRTh2 membranes. As to the method: The binding of CRTh2 modulators is determined using membranes prepared from human CRTh2-expressing Chinese Hamster Ovary cells (CHO.K1-CRTh2). To produce cell membranes CHO.K1-CRTh2 cells cultured in roller bottles are harvested using cell dissociation buffer (Invitrogen). The cells are pelleted by centrifugation (167 g, 5 min). The cell pellet is incubated in hypotonic buffer (15 mM Tris-OH, 2 mM MgCl2, 0.3 mM EDTA, 1 mM EGTA, 1× Complete™ tablet) at 4° C. for 30 min. At 4° C. cells are homogenized using a Polytron® (IKA Ultra Turrax T25) for 5 bursts of 1 second. The homogenate is centrifuged (Beckman Optima™ TL Ultracentrifuge, 48000 g, 30 min at 4° C.). The supernatant is discarded and the membrane pellet resuspended in homogenisation buffer (75 mM Tris-OH, 12.5 mM MgCl2, 0.3 mM EDTA, 1 mM EGTA, 250 mM Sucrose, 1× Complete™ tablet. Membrane preparations are aliquoted and stored at […]. The protein content is estimated using Bradford Protein Assay Dye (Bio Rad).
The binding of [^3H]-PGD2 (157 Ci/mmol) to CHO.K1-CRTh2 membranes is determined in the absence (total binding) and presence (non-specific binding) of unlabelled PGD2 (1 μM). Subtraction of the cpm (counts per minute) of [^3H]-PGD2 binding in presence of excess unlabelled PGD2 from that observed in the absence of excess unlabelled PGD2 is defined as specific binding. Active CRTh2 modulators are able to compete with [^3H]-PGD2 for binding to the CRTh2 receptor and are identified in a decrease in the number of cpm bound.
The assay is performed in Greiner U-bottomed 96 well-plates, in a final volume of 100 μl per well. CHO.K1-CRTh2 membranes were diluted in assay buffer (10 mM HEPES-KOH (pH 7.4), 1 mM EDTA and 10 mM MnCl2) and 10 μg are added to each well. [^3H]-PGD2 is diluted in assay buffer and added to each well at a final concentration of 2.5 nM. To determine non-specific binding, [^3H]-PGD2 binding to the CRTh2 receptor is competed with using unlabelled PGD2 at a final well concentration of 1 μM. The experiment is done in triplicate, with reagents added to the wells as follows: • 25 μL assay buffer for total binding or • 25 μL PGD2 to determine non-specific binding • 25 μL [^3H]PGD2 • 50 μL membranes • 25 μL test compound in DMSO/assay buffer
The plates are incubated at room temperature on a shaker for 1 hour, and then harvested (Tomtec Harvester 9600) onto GF/C filter plates using wash buffer (10 mM HEPES-KOH, pH 7.4). […] Plates are then counted using a Packard Top Count instrument, Plates are then read on the Packard Topcount with the 3H Scintillation program (1 min per well). • Ki (dissocation constant for the inhibition) values for the CRTh2 modulators are reported. Ki values are determined using Sigma Plot™ software, using the Cheng-Prussoff equation. […]

Molecules are shown by their SMILES.

As usually defined, the IC50 is the point on the concentration scale where inhibition reaches its midpoint. A lower IC50 goes with greater potency in that assay. What is called Ki is the equilibrium dissociation constant of an inhibitor or competing ligand from its target. A low value points to a stronger hold on the target. In turn, `Cc1c(CC(=O)O)c2cccnc2n1Cc1ccc(S(=O)(=O)N2CCOCC2)cc1` [Example 1, {2-methyl-1-[4-(morpholine-4-sulfonyl)-benzyl]-1H-pyrrolo[2,3-b]pyridine-3-yl}acetic acid] displayed a 50% inhibitory concentration (IC50) in experiment [1] of 60 nM. In addition, in experiment [2], the Ki was 30 nM.
On the same counts, the results for `Cc1c(CC(=O)O)c2cccnc2n1Cc1ccc(S(=O)(=O)N2CCCCC2)cc1` [Example 4] are 42 nM and 240 nM.
On the same counts, the results for `Cc1c(CC(=O)O)c2cccnc2n1Cc1ccc(S(=O)(=O)N2CCCC2)cc1` [Example 2] are 83 nM and 34 nM.
`Cc1c(CC(=O)O)c2cccnc2n1Cc1ccc(S(=O)(=O)N(C)C2CCCCC2)cc1` [Example 6, {1-[4-(Cyclohexyl-methyl-sulfamoyl)-benzyl]-2-methyl-1H-pyrrolo[2,3-b]pyridin-3-yl}-acetic acid]: in experiment [1], the half-maximal inhibitory concentration (IC50) amounted to 18 nM. The compound also registered a Ki in experiment [2] of 2 nM.
